Tested on: NK T hybridoma DN32.D3
Assay: Murine NK T cell hybridoma stimulation assay (IL-2 release), RMA-S.mCD1d as APC
Assay type: cell-based, mouse
Settings: presented by RMA-S/CD1d cells
Method: FIG. 5. […] NK T hybridoma DN32.D3 was cultured with CD1d-transfected RMA-S cells in microtiter plate wells. Each ceramide-like glycolipid was titrated over a concentration range from 0.5-500 nM, and supernatants were harvested after 24 hours for measurement of IL-2 release. Units of activity were calculated as the reciprocal of the concentration of ceramide-like glycolipid required to give a half maximal release of IL-2, and all values were normalized to the activity of KRN7000 (defined as 1 Unit). The dotted line indicates the level of activity for KRN7000. The structures of two ceramide-like glycolipids with markedly elevated activity relative to KRN7000 are shown.
The ability of the compounds to activate NK T cell hybridomas in the presence of various types of cells expressing CD1d reported in FIG. 5A was determined using a murine NK T cell hybridoma stimulation assay. […] Relative potencies of the ceramide-like glycolipids were calculated from the reciprocal effective concentrations at half-maximal response (1/EC50), and expressed as units by normalization to the observed potency for KRN7000.
IL-2 production by NK T hybridoma DN32D3 in response to eight selected ceramide-like glycolipids, was determined using three different cell types as antigen presenting cells. […]

CCCCC/C=C\C/C=C\CCCCCCCCCC(=O)N[C@@H](COC1OC(CO)C(O)C(O)C1O)[C@H](O)[C@H](O)CCCCCCCCCCCCCC (stereo partly shown) [DB03-4]
potency relative to KRN7000 (IL-2 production): extremely enhanced potency

From patent publication US8022043B2, “Ceramide derivatives as modulators of immunity and autoimmunity” (Albert Einstein College of Medicine of Yeshiva University, priority 2004, dated 2011)
